This is an account of results in patent US20250368649A1, “TETRAHYDROPYRIDOPYRIMIDINE PAN-KRAS INHIBITORS” (Mirati Therapeutics, Inc., priority 2022, published 2025).

For experiment [1], the system named is H460 cells. Description: Inhibition of KRas-mediated phosphorylation of ERK (Cisbio HTRF pERK), H460 cells. Format: cell-based. The settings on record: Homo sapiens; for inhibition at 0.1 µM: NCI-H460, single point at 100 nM, 3 hrs compound incubation.
Experiment [2] concerns ASPC1 cells. Description: Inhibition of KRas-mediated phosphorylation of ERK (Cisbio HTRF pERK), ASPC1 cells. The settings on record: Homo sapiens, AsPC-1 cells; for inhibition at 0.1 µM: ASPC1, single point at 100 nM, 3 hrs compound incubation; for IC50: ASPC1, 3 h, 3 hr compound incubation, Cisbio pERK HTRF. The class given is cell-based. Background: In TR-FRET formats the signal depends on donor and acceptor labels being close together.

The test system of experiment [3] is H727 cells. Kind of experiment: Inhibition of KRas-mediated phosphorylation of ERK (Cisbio HTRF pERK), H727 cells. The class given is cell-based. Conditions: Homo sapiens; for inhibition at 0.1 µM: NCI-H727, single point at 100 nM, 3 hrs compound incubation; for IC50: NCI-H727, 3 h, 3 hr compound incubation, Cisbio pERK HTRF.
The target in experiment [4] is KRas G12D (Homo sapiens, UniProt P01116, G12D). Kind of experiment: biochemical. Conditions: Binding to KRas (IC50 nM) G12D, TR-FRET displacement, KRas G12D.
Experiment [5] has as its target KRas G12V (Homo sapiens, UniProt P01116, G12V). Kind of experiment: biochemical. The settings on record: Binding to KRas (IC50 nM) G12V, TR-FRET displacement, KRas G12V.
The subject of experiment [6] is A549 cells. Description: Inhibition of KRas-mediated phosphorylation of ERK (Cisbio HTRF pERK), A549 cells. Format: cell-based. Conditions: Homo sapiens; for inhibition at 0.1 µM: single point at 100 nM, 3 hrs compound incubation.
The subject of experiment [7] is HCT116 cells. Description: Inhibition of KRas-mediated phosphorylation of ERK (Cisbio HTRF pERK), HCT116 cells. Format: cell-based. Conditions: Homo sapiens; for inhibition at 0.1 µM: HCT-116, single point at 100 nM, 3 hrs compound incubation.
Experiment [8] concerns H358 cells. Kind of experiment: Inhibition of KRas-mediated phosphorylation of ERK (Cisbio HTRF pERK), H358 cells. The class given is cell-based. The settings on record: Homo sapiens; for inhibition at 0.1 µM: NCI-H358, single point at 100 nM, 3 hrs compound incubation.
Experiment [9] has as its target KRas G12R (Homo sapiens, UniProt P01116, G12R). Description: biochemical. Conditions: Binding to KRas (IC50 nM) G12R, TR-FRET displacement, KRas G12R.

The structures appear in SMILES notation.

Chain of KRas G12R (P01116 1-169 isoform P01116-2 G12R): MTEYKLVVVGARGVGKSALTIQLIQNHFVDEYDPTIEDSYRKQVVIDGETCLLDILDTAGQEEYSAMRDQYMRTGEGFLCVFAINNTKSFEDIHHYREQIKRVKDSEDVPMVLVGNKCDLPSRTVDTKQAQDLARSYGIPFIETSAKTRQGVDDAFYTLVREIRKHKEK
Chain of KRas G12D (P01116 1-169 isoform P01116-2 G12D): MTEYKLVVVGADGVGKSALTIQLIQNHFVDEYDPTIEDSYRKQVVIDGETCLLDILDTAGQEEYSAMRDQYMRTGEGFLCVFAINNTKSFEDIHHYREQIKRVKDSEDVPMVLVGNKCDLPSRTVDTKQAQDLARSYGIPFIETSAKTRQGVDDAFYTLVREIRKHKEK
Chain of KRas G12V (P01116 1-169 isoform P01116-2 G12V): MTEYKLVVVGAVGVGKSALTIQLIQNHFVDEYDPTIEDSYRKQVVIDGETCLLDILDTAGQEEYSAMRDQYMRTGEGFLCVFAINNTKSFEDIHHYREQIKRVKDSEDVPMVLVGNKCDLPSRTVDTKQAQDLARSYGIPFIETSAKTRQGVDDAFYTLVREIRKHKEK

Consider `CCc1c(F)ccc2cc(O)cc(N3CCc4c(nc(N5CC(C)(N)C5)nc4N4CCCn5nc(C(=O)N(C)C)cc5C4)C3)c12` [Example 427, 5-(2-(3-amino-3-methylazetidin-1-yl)-7-(8-ethyl-7-fluoro-3-hydroxynaphthalen-1-yl)-5,6,7,8-tetrahydropyrido[3,4-d]pyrimidin-4-yl)-N,N-dimethyl-5,6,7,8-tetrahydro-4H-pyrazolo[1,5-a][1,4]diazepine-2-carboxamide], for which the inhibition at 0.1 µM in experiment [1] was 25%; in experiment [2] it was -23%; in [3] it was -14%; in [6] it was 0%; in experiment [7] it was 4%; in experiment [8], -16%. The results for the IC50 in experiment [4], in experiment [5] and in experiment [9] were 182 nM, 253 nM and 537 nM, respectively.
Take `CCc1c(F)ccc2cc(O)cc(N3CCc4c(nc(OCC5(CN(C)C)CC5)nc4N4CCCn5nc(C(=O)N6CCOCC6)cc5C4)C3)c12` [Example 429, (5-(2-((1-((dimethylamino)methyl)cyclopropyl)methoxy)-7-(8-ethyl-7-fluoro-3-hydroxynaphthalen-1-yl)-5,6,7,8-tetrahydropyrido[3,4-d]pyrimidin-4-yl)-5,6,7,8-tetrahydro-4H-pyrazolo[1,5-a][1,4]diazepin-2-yl)(morpholino)methanone]: the inhibition at 0.1 µM is -3% in experiment [1], 23% in experiment [6], -4% in experiment [7] and 19% in [8]. In addition, the IC50 is 113 nM in experiment [2]; 95 nM in experiment [3]; less than 2 nM in experiment [4]; less than 2 nM in experiment [5]; 3 nM in experiment [9].
With `CCc1c(F)ccc2cc(O)cc(N3CCc4c(nc(N5CC(N(C)C)C5)nc4N4CCCC5(C4)NC(=O)NC5=O)C3)c12` (centres unmarked) [Example 433, 7-(2-(3-(dimethylamino)azetidin-1-yl)-7-(8-ethyl-7-fluoro-3-hydroxynaphthalen-1-yl)-5,6,7,8-tetrahydropyrido[3,4-d]pyrimidin-4-yl)-1,3,7-triazaspiro[4.5]decane-2,4-dione], the inhibition at 0.1 µM in experiment [1] was 6%; in experiment [2] it was -5%; in experiment [3], 0%; in [6], 9%; in [7], 1%; in experiment [8], -7%. Further, the IC50 in experiment [2] amounted to 2610 nM; in experiment [3], 1160 nM; in experiment [4], 26 nM; in experiment [5], 10 nM; in [9], 11 nM.
For the molecule `O=S1(=O)NCC2(CCCN(c3nc(OC[C@@]45CCCN4C[C@H](F)C5)nc4c3CCN(c3cc(O)cc5ccc(F)c(F)c35)C4)C2)N1` (stereo partly drawn) [Example 447, 7-(7-(7,8-difluoro-3-hydroxynaphthalen-1-yl)-2-(((2R,7aS)-2-fluorohexahydro-1H-pyrrolizin-7a-yl)methoxy)-5,6,7,8-tetrahydropyrido[3,4-d]pyrimidin-4-yl)-2-thia-1,3,7-triazaspiro[4.5]decane 2,2-dioxide], the IC50 in experiment [1] (NCI-H460, 3 h, 3 hr compound incubation, Cisbio pERK HTRF) was 170 nM; in experiment [2] it was 202 nM; in experiment [3], 179 nM; in experiment [4] it was less than 2 nM; in experiment [5], less than 2 nM; in [6] (A549, 3 h, 3 hr compound incubation, Cisbio pERK HTRF), 373 nM. Further, the IC50 in experiment [7] (HCT-116, 3 h, 3 hr compound incubation, Cisbio pERK HTRF) was 338 nM; in [8] (NCI-H358, 3 h, 3 hr compound incubation, Cisbio pERK HTRF), 44 nM; in experiment [9], less than 2 nM. Also, the inhibition at 0.1 µM amounted to 35% in experiment [1]; 23% in experiment [2]; 24% in experiment [3]; 28% in experiment [6]; 28% in experiment [7]; 61% in experiment [8].
As for `Oc1cc(N2CCc3c(nc(OC[C@@]45CCCN4C[C@H](F)C5)nc3N3CCCC4(CCO4)C3)C2)c2c(Cl)c(F)ccc2c1` (stereo partly drawn) [Example 463, 5-chloro-6-fluoro-4-(2-(((2R,7aS)-2-fluorohexahydro-1H-pyrrolizin-7a-yl)methoxy)-4-(1-oxa-6-azaspiro[3.5]nonan-6-yl)-5,6-dihydropyrido[3,4-d]pyrimidin-7(8H)-yl)naphthalen-2-ol], the inhibition at 0.1 µM is 2% in experiment [1]; 15% in experiment [2]; 20% in experiment [3]; 18% in experiment [6]; -3% in experiment [7]; -13% in experiment [8]. The IC50 in experiment [2] is 615 nM; in [3], 597 nM; in experiment [4], less than 2 nM; in [5], less than 2 nM; in [9] it was less than 2 nM.
On to `CN(C)CC1(COc2nc3c(c(N4CCCn5nc(C(=O)N6CCOCC6)cc5C4)n2)CCN(c2cc(O)cc4ccc(F)c(Cl)c24)C3)CC1` [Example 468, (5-(7-(8-chloro-7-fluoro-3-hydroxynaphthalen-1-yl)-2-((l-((dimethylamino)methyl)cyclopropyl)methoxy)-5,6,7,8-tetrahydropyrido[3,4-d]pyrimidin-4-yl)-5,6,7,8-tetrahydro-4H-pyrazolo[1,5-a][1,4]diazepin-2-yl)(morpholino)methanone], for which the inhibition at 0.1 µM was -7% in experiment [1], -12% in experiment [6], -4% in [7] and -2% in experiment [8]. For the same molecule, the IC50 is 1940 nM in experiment [2]; 1770 nM in experiment [3]; 2 nM in experiment [4]; 3 nM in [5]; 10 nM in experiment [9].
For the molecule `CCc1c(F)ccc2cc(OC)cc(N3CCc4c(nc(OC[C@@]56CCCN5C[C@H](F)C6)nc4N4CCCn5nc(C(=O)N(C)C)cc5C4)C3)c12` [Example 469, 5-(7-(8-ethyl-7-fluoro-3-methoxynaphthalen-1-yl)-2-(((2R,7aS)-2-fluorohexahydro-1H-pyrrolizin-7a-yl)methoxy)-5,6,7,8-tetrahydropyrido[3,4-d]pyrimidin-4-yl)-N,N-dimethyl-5,6,7,8-tetrahydro-4H-pyrazolo[1,5-a][1,4]diazepine-2-carboxamide], the inhibition at 0.1 µM in experiment [1] was 2%; in [6] it was -1%; in experiment [7], 0%; in [8], 0%. The IC50 was found to be 1200 nM in [2]; 1980 nM in experiment [3]; 8 nM in [4]; 24 nM in [5]; 105 nM in [9].
Turning to `CCc1c(F)ccc2cc(O)cc(N3CCc4c(nc(OC[C@@]56CCCN5C[C@H](F)C6)nc4N4CCCCC(COCC(N)=O)C4)C3)c12` (stereo partly drawn) [Example 492, 2-((1-(7-(8-ethyl-7-fluoro-3-hydroxynaphthalen-1-yl)-2-(((2R,7aS)-2-fluorohexahydro-1H-pyrrolizin-7a-yl)methoxy)-5,6,7,8-tetrahydropyrido[3,4-d]pyrimidin-4-yl)azepan-3-yl)methoxy)acetamide], the inhibition at 0.1 µM in [1] was 6%; in [2], -11%; in [3] it was 0%; in [6], -24%; in experiment [7] it was 23%; in experiment [8], -3%. In addition, the IC50 is 9040 nM in experiment [2]; 3940 nM in experiment [3]; 11 nM in [4]; 7 nM in experiment [5]; 6 nM in experiment [9].
`CCc1c(F)ccc2cc(O)cc(N3CCc4c(nc(OC[C@@]56CCCN5C[C@H](F)C6)nc4N4CCCn5nc(CS(=O)(=O)N(C)C)cc5C4)C3)c12` [Example 494, 1-(5-(7-(8-ethyl-7-fluoro-3-hydroxynaphthalen-1-yl)-2-(((2R,7aS)-2-fluorohexahydro-1H-pyrrolizin-7a-yl)methoxy)-5,6,7,8-tetrahydropyrido[3,4-d]pyrimidin-4-yl)-5,6,7,8-tetrahydro-4H-pyrazolo[1,5-a][1,4]diazepin-2-yl)-N,N-dimethylmethanesulfonamide]: the inhibition at 0.1 µM in [1] was 4%; in experiment [2] it was -4%; in [3] it was 13%; in [6], 14%; in [7], 4%; in [8] it was 8%. Further, the IC50 is 749 nM in [2]; 2580 nM in [3]; 12 nM in experiment [4]; 26 nM in experiment [5]; 24 nM in experiment [9].

Broadly, the inhibition is the change of the read-out against control, counted positive when it falls. The term IC50 denotes the concentration needed to halve the response being measured. Low readings indicate higher potency, high ones lower potency.
